Experimental data from PMC5762859, “Distribution analysis of epertinib in brain metastasis of HER2-positive breast cancer by imaging mass spectrometry and prospect for antitumor activity” (Scientific Reports, 2018).
Where two headings read alike, the source gives them in different places.

Key:
EGFR = test system: EGFR; set-up: method as in PMID 24837299; settings: cited from earlier work
MDA-MB-361 cell line = assay: In vitro growth inhibition of parental cell line; type: cell-based; settings: Homo sapiens
Description: (§1) We evaluated the inhibitory activity of epertinib on the in vitro growth of the parental cell line, MDA-MB-361. […] To compare the growth inhibitory activity of epertinib on the parental and metastatic (BR2) cell lines, we evaluated the antitumor activity of epertinib in both cell lines. […] To confirm the antitumor activity of epertinib in the IVM, we examined the effect of epertinib on the IVM transplanted BR2.

[1] = Plasma radioactivity and epertinib after single oral [14C]-epertinib hydrochloride in rats; type: in vivo
Description: We used quantitative IMS to analyze and compare the distribution of epertinib and lapatinib in brain metastasis. IMS can simultaneously detect diverse molecules and obtain spatial distribution information capable of distinguishing between a drug and its metabolites in tissue sections[21],[35]. Historically, drug metabolism and pharmacokinetic studies have used radiolabels to perform autoradiography and obtain information about tissue distribution. Previously, plasma concentrations of radioactivity and epertinib were determined after a single oral administration of [^14C]-epertinib hydrochloride at a dose of 5 mg/kg (as epertinib) in rats (Supplementary Fig. S3). […] The AUC0–12 h and AUCinf values were 126 ± 18 and 392 ± 316 ng·h/mL, respectively. The plasma epertinib/radioactivity concentration ratio ranged from 10.9% to 16.2% through the measurable points, and the AUCinf ratio was ~20.8 ± 15.0%.
Supplementa ry Figure S3. Concentration of radioactivity and epertinib in plasma after single oral administration of [14C]-epertinib hydrochloride to non-f as ti ng male rats (dose: 5 mg as epertinib /kg)
Data ar e ex pressed as the mean values + SD o f fou r animals.
(1 picture or pasted object on this page, not shown here)

HER2 = test system: HER2; set-up: method as in PMID 24837299; settings: cited from earlier work
MDA-MB-361-luc-BR2 = assay: Mammary fat pad implantation model, antitumor activity; type: in vivo, mice; settings: Mus musculus, 672 h; BR2 in mammary fat pad, oral daily for 28 days
Description: as §1
(§2) Figure 6 In vivo antitumor activity of epertinib in the breast cancer IVM. Epertinib inhibits the growth of breast cancer in animal models. In each animal model, vehicle or indicated doses of epertinib were orally administered daily. Tumor volume was measured twice or thrice weekly and the mean tumor volume with SD is represented by each data point. Human breast cancer cells, MDA-MB-361 (A) or MDA-MB-361-luc-BR2 (B) was implanted orthotopically into the mammary fat pad of mice. Tumor-bearing mice were treated for 28 days (A and B). Tumor growth in the breast cancer IVM ([…]) was monitored by the photons emitted from the tumor as an indicator, which was measured with an IVIS Imaging System 200 (Caliper Life Sciences). […] The photons were measured once or twice weekly and the mean photons/sec with SD are presented at each data point (n = 3 for vehicle, n = 4 for 50 mg/kg of epertinib) (C). […]

MDA-MB-361 = assay: as above; type: in vivo, mice; settings: Mus musculus, 672 h; MDA-MB-361 in mammary fat pad, oral daily for 28 days
Description: as §1, §2

P-glycoprotein (P-gp) [2] = molecular target: T1, P-glycoprotein (P-gp) (Homo sapiens, UniProt P08183); assay: P-gp substrate assessment; type: in vitro ADME; settings: from permeability and efflux ratio across Caco-2 cell monolayers
T1 construct: permeability and efflux ratio of epertinib across Caco-2 cell monolayers; endogenous in cells; host or cells: Caco-2

[3] = test system: experimental brain metastasis of HER2-positive breast cancer (IVM); assay: Antitumor activity in the breast cancer IVM (bioluminescence); type: in vivo, mice; settings: once daily oral 50 mg/kg, 30 days, photons emitted from tumor
Description: as §1, §2

[4] = test system: HER2-positive metastatic breast cancer patients; set-up: method as in earlier work; settings: cited from earlier work; for Objective response rate (ORR): heavily pretreated HER2-positive metastatic breast cancer
[5] = healthy volunteers, single oral 250 mg [14C]-lapatinib; cited from earlier work
[6] = molecular target: T2, breast cancer resistance protein (BCRP) (Homo sapiens, UniProt Q9UNQ0); settings: cited from earlier work
T2 construct: permeability and efflux ratio of epertinib across Caco-2 cell monolayers; endogenous in cells; host or cells: Caco-2
T2 sequence (Q9UNQ0 1-655): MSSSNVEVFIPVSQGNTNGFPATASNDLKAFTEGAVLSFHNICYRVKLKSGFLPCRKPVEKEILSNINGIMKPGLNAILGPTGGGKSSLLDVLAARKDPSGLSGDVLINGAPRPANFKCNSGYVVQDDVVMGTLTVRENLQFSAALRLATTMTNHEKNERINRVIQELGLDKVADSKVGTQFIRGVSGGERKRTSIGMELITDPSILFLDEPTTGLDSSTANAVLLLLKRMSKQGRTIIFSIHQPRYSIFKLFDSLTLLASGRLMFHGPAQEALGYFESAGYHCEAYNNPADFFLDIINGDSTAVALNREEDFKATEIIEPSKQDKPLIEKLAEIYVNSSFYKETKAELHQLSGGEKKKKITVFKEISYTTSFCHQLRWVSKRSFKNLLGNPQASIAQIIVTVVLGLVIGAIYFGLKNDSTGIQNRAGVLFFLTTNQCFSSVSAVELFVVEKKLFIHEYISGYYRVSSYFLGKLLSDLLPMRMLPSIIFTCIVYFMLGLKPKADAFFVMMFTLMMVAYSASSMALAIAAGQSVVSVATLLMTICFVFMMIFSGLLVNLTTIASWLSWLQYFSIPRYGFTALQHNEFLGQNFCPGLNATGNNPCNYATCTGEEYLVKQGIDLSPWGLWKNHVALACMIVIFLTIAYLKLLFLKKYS

P-glycoprotein (P-gp) [7] = molecular target: T1, P-glycoprotein (P-gp); settings: cited from earlier work

T1 sequence (P08183 whole entry): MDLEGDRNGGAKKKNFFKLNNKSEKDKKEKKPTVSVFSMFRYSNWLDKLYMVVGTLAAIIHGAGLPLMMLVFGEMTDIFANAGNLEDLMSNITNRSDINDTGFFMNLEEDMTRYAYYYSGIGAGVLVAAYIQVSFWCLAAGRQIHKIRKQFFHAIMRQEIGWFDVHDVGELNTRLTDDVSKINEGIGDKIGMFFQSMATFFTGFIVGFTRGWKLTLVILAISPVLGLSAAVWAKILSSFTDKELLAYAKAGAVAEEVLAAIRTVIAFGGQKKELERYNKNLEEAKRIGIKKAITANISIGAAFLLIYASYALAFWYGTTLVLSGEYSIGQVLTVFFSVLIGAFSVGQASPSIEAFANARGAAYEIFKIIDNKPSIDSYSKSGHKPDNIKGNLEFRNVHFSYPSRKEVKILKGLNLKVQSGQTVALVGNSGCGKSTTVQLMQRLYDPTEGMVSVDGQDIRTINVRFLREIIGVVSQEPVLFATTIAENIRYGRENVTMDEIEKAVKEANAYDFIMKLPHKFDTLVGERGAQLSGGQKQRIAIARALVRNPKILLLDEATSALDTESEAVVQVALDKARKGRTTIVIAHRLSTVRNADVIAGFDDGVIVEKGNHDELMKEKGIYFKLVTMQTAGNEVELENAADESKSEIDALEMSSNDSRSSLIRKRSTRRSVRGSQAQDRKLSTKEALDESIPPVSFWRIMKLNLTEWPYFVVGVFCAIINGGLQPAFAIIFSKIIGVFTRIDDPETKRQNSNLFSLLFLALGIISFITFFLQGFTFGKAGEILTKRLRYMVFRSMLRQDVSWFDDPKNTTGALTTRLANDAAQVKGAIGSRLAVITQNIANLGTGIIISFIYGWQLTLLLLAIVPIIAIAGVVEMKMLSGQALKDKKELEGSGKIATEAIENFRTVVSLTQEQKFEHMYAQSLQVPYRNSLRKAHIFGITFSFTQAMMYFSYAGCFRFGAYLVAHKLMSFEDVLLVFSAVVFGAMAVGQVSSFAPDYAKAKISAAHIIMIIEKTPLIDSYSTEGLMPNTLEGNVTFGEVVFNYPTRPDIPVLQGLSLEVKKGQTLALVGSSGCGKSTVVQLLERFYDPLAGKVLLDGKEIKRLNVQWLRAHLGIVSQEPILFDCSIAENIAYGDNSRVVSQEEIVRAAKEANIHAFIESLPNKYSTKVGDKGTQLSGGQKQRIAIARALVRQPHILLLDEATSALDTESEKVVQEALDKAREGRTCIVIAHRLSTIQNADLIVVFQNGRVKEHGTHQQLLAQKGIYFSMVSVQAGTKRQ

| Structure (SMILES) | Off-rate of dissociation compared with lapatinib (EGFR) | IC50 (MDA-MB-361 cell line) [nM] | Epertinib/radioactivity AUCinf ratio [1] | AUC(0-t) ([1]; male, rat, plasma, single oral 5 mg/kg [14C]-epertinib hydrochloride, read-out: AUC0–12 h of epertinib) [ng·h/mL] | AUC(0-inf) ([1]; male, rat, plasma, single oral 5 mg/kg [14C]-epertinib hydrochloride, read-out: AUCinf of epertinib) [ng·h/mL] | Cmax ([1]; male, rat, plasma, single oral 5 mg/kg [14C]-epertinib hydrochloride, read-out: Plasma concentration of epertinib, Cmax) [ng/mL] | Time of Cmax of plasma epertinib ([1]; single oral 5 mg/kg [14C]-epertinib hydrochloride) [h] | Off-rate of dissociation compared with lapatinib (HER2) | ED50 (MDA-MB-361-luc-BR2) [mg/kg] | ED50 (MDA-MB-361) [mg/kg] | P-gp substrate (P-glycoprotein (P-gp) [2]) | Effect on brain tumor volume [3] | Tumor reduction (partial response), brain metastases as the target lesion ([4]; all the participants in a clinical trial) | Objective response rate (ORR) ([4]; in combination with trastuzumab and capecitabine) [%] | Objective response rate (ORR) ([4]; in combination with trastuzumab) [%] | Tumor response (patients) ([4]; in combination with trastuzumab, patients previously treated with lapatinib plus capecitabine or ado-trastuzumab emtansine) | Mean plasma concentration of lapatinib at Cmax [5] [ng/mL] | BCRP substrate [6] | P-gp substrate (P-glycoprotein (P-gp) [7]) |
| --- | --- | --- | --- | --- | --- | --- | --- | --- | --- | --- | --- | --- | --- | --- | --- | --- | --- | --- | --- |
| CC#CC(=NOCC1COCCN1)c1ccc2ncnc(Nc3ccc(OCc4cccc(F)c4)c(Cl)c3)c2c1 (stereo not shown) [Epertinib] | slower off-rate of dissociation | 26.5 | ~ 20.8 ± 15.0% | 126 ± 18 | 392 ± 316 | 14.1 ± 3.6 | 5.00 ± 1.15 | slower off-rate of dissociation | 26.5 | 24.1 | not a substrate | significantly reduced the brain tumor volume | two of 45 | 56 | 67 | seven of 21 | – | – | – |
| CS(=O)(=O)CCNCc1ccc(-c2ccc3ncnc(Nc4ccc(OCc5cccc(F)c5)c(Cl)c4)c3c2)o1 [Lapatinib, N-{3-chloro-4-[(3-fluorobenzyl)oxy]phenyl}-6-[5-({[2-(methylsulfonyl)ethyl]amino}methyl)-2-furyl]-4-quinazolinamine, reference compound] | – | – | – | – | – | – | – | – | – | – | – | – | – | – | – | – | 330 | substrates | substrates |
